# Where “and” joins values, the source holds several entries; their conditions need not be identical. Equal entries are not always repeated. Entries after “also recorded” stand apart in the source; their conditions may differ. Where two headings read alike, the source gives them in different places.
# Columns and labels:
# [1] = adult mice, intraperitoneal 5 mg/kg; ref 44;45; cited from earlier work
# [2] = test system: CB1R; conditions: cited from earlier work
# [3] = target: T1, GRABeCB2.0 (Homo sapiens, UniProt P21554); experiment: cell-based; assay type: cell-based
# [4] = target: T1, GRABeCB2.0; experiment: cell-based; conditions: for Effect on GRABeCB2.0 fluorescent signal: products of 2-AG hydrolysis
# [5] = read-out: EC50, potency at CB1R
# [6] = read-out: EC50 for activation of CB1Rs
# [7] = applied at a concentration that approaches the EC50
# [8] = concentration-dependent responses
structure (smiles),measurement,setting,value
"CCCCCc1cc(O)c2c(c1)OC(C)(C)[C@@H]1CCC(C)=C[C@@H]21 [Δ^9-THC, Δ^9-tetrahydrocannabinol]",THC in mouse brain,[1],≈ 10 ng/ml and 31.8 nM
"CCCCC/C=C\C/C=C\C/C=C\C/C=C\CCCC(=O)NCCO [AEA, arachidonoyl ethanolamine]",EC50,[2]; [5],69 to 276 nM
same,EC50,[2]; [6],10 to 100 nM
"CCCCC/C=C\C/C=C\C/C=C\C/C=C\CCCC(=O)OC(CO)CO [2-AG, 2-arachidonoylglycerol]",Antagonism response: t (decay following SR1 treatment),[3],42.7 s
same,Decay of agonist response antagonized by SR1,[3],43 s
same,Maximal response: peak,"[3]; 2-AG 1 μM, AEA 10 μM, CP 1 μM",2.5 DF/F0
same,Overall response (area under the curve),"[3]; 2-AG 1 μM, AEA 10 μM, CP 1 μM",649
same,Emax,"[3]; HEK293, read-out: Peak response greater than the CP maximal response",47 to 58%
same,Initial response: slope,"[3]; slope of fluorescent signal increase within first 20 sec after start of agonist, 2-AG 1 μM, AEA 10 μM, CP 1 μM",6.6 × 10^−2 DF/F0/sec
same,Antagonism of agonist response by SR1 100 nM,[4],partial antagonized
same,Effect of SR1 pre-treatment on agonist-stimulated GRABeCB2.0 activation,[4],significantly reduced
same,GRABeCB2.0 fluorescent signal at 0 sec over basal,[4]; 2-AG 10 nM,0.19 ΔF/F0
same,Initial inflection point,[4]; 2-AG 10 nM,0.66 min
same,GRABeCB2.0 fluorescent signal at 0 sec over basal,[4]; 2-AG 100 nM,0.96 ΔF/F0
same,Initial inflection point,[4]; 2-AG 100 nM,0.33 min
same,Inflection point,[4]; 2-AG 3 μM (strongest response),≈ 0.66 min
same,Kinetics of fluorescent signal increase,[4]; [7],rapid increases in fluorescent signal that were followed by slow decays
"CCCCC/C=C\C/C=C\CCCCCCCC(=O)OC(CO)CO [2-LG, 2-linoleoylglycerol]",Antagonism of agonist response by SR1 100 nM,[4],partial antagonized
same,EC50,[4],1500 nM
same,Effect of SR1 pre-treatment on agonist-stimulated GRABeCB2.0 activation,[4],reduced
same,Kinetics of fluorescent signal increase,[4]; [7],rapid increases in fluorescent signal that were followed by slow decays
same,Initial inflection time point,[4]; [8],≤ 1 min
same,EC50,"[2]; read-out: EC50, partial activation of CB1R, ref 11;12",16600 nM
same,EC50,"[2]; read-out: EC50 to activate CB1R, discussion, no reference given",~25000 nM
"CCCCCCCC/C=C\CCCCCCCC(=O)OC(CO)CO [2-OG, 2-oleoylglycerol]",Antagonism of agonist response by SR1 100 nM,[4],strongly antagonized
same,Antagonism of agonist response by SR1 300 nM,[4],strongly antagonized
same,EC50,[4],1000 nM
same,Effect of SR1 pre-treatment on agonist-stimulated GRABeCB2.0 activation,[4],reduced
same,Kinetics of fluorescent signal increase,[4]; [7],rapid increases in fluorescent signal that were followed by slow decays
same,Initial inflection time point,[4]; [8],≤ 1 min
CCCCC/C=C\C/C=C\C/C=C\C/C=C\CCCC(=O)O [arachidonic acid],Effect on GRABeCB2.0 fluorescent signal,[4],did not influence
"C=C(C)[C@@H]1CCC(C)=C[C@H]1c1c(O)cc(CCCCC)cc1O [CBD, Cannabidiol]",Effect on basal GRABeCB2.0 fluorescent signal,[4]; CBD 0.1 nM to 3 μM (legend: 100 pM-10 μM),did not affect; also recorded: does not modulate; also recorded: did not significantly modulate
same,Reduction of 2-AG-induced increase in GRABeCB2.0 fluorescent signal,[4]; at 1 μM,26%
CCCCCCC(C)(C)c1ccc([C@@H]2C[C@H](O)CC[C@H]2CCCO)c(O)c1 [CP],Antagonism response: t (decay following SR1 treatment),[3],24.3 s
same,Decay of agonist response antagonized by SR1,[3],24 s
same,Initial response: slope,[3],4.5 × 10^−2 DF/F0/sec
same,Maximal response: peak,[3],1.7 DF/F0
same,Antagonism of agonist response by SR1 100 nM,[4],partial antagonized
same,Antagonism of agonist response by SR1 300 nM,[4],more than 80%
same,Effect of SR1 pre-treatment on agonist-stimulated GRABeCB2.0 activation,[4],significantly reduced
same,Initial inflection time point,[4],≤ 1.33 min
same,Kinetics of fluorescent signal increase,[4],progressive increases in fluorescent signal that did not reach peak response within 5 min
same,Maximal GRABeCB2.0 response as percent of the 2-AG response,[4],71%
OCC(O)CO [glycerol],Effect on GRABeCB2.0 fluorescent signal,[4],did not influence
"CCCCC/C=C\C/C=C\C/C=C\C/C=C\CCCC(=O)OCC(O)CO (stereo not drawn) [1-AG, 1-arachidonoylglycerol]",Antagonism of agonist response by SR1 100 nM,[4],strongly antagonized
same,Antagonism of agonist response by SR1 300 nM,[4],strongly antagonized
same,EC50,[4],1800 nM
same,Effect of SR1 pre-treatment on agonist-stimulated GRABeCB2.0 activation,[4],reduced
same,Initial inflection time point,[4],≤ 1 min
same,Kinetics of fluorescent signal increase,[4],rapid increases in fluorescent signal that were followed by slow decays
same,EC50,"[2]; read-out: EC50 at CB1R, ref 29;40;41",1000 to 1900 nM

# Source: article PMC10028790 (bioRxiv, 2023)
